Measurements published in patent US20240215576A1, “HEAT-RESISTANT MOLD GROWTH INHIBITOR, FOOD AND DRINK IN WHICH GROWTH OF HEAT-RESISTANT MOLD IS INHIBITED, AND METHOD FOR INHIBITING GROWTH OF HEAT-RESISTANT MOLD” (NIPPON SHINYAKU CO., LTD., priority 2021, published 2024).
Where a name gives a salt, the structure may show the parent alone. Values belong to the molecule of their own block, whether it stands above or below them.

What was measured:
[1] = system: N. primulina; assay: Growth of N. primulina in tomato juice stored at 25° C.; type: cell-based, Neosartorya primulina; set-up: key to Growth of N. primulina, 5 days / Growth of N. primulina, 7 days / Growth of N. primulina, 10 days / Growth of N. primulina, 14 days: those showing the growth of N. primulina are represented by “+,”; those showing no growth are represented by “−.”; details: for growth inhibition effect against N. primulina after the lapse of 14 days: high concentration of the active component (270 ppm); for Growth of N. primulina, 3 days / Growth of N. primulina, 5 days / Growth of N. primulina, 7 days / Growth of N. primulina, 10 days / Growth of N. primulina, 14 days: storage at 25° C.
Description: Diethyl fumarate or 2-decenoic acid was added to tomato juice (100% pure, salt-free) such that the concentration of the component was as shown in Table 2 below. […] In Table 2, those showing the growth of N. primulina are represented by “+,” and those showing no growth are represented by “−.”

[2] = system: N. primulina; assay: Growth of N. primulina in Trypticase soy broth medium stored 7 days at 25° C.; type: cell-based, Neosartorya primulina; details: for growth inhibition effect against N. primulina: 1000 ppm; for Growth of N. primulina after lapse of 7 days under storage at 25° C.: concentration 1000 ppm
Description: (§1) Diethyl fumarate and 2-decenoic acid were prepared for use in Examples. In addition, the following components reported to have a growth inhibition effect against normal mold (non-heat-resistant mold) were prepared for use in Comparative Examples: palmitic acid, trans-anethole, benzyl alcohol, cinnamic acid, hinokitiol, salicylic acid, hexanal, 2-mercapto benzothiazole, p-cymene, 1,8-cineole, α-pinene, estragole, 4-hydroxy-3,5-dimethoxybenzoic acid, and linalyl acetate. Then, each component was added to a medium of Trypticase soy broth such that the concentration of each component was as shown in Table 3 below.
(§2) These media were stored for 7 days under an atmosphere at 25° C. […] In Table, those showing the growth are represented by “+,” and those showing no growth are represented by “−.”

[3] = system: B. fulva; assay: Growth of B. fulva in tomato juice stored at 25° C.; type: cell-based, Byssochlamys fulva; details: for generation of B. fulva after the lapse of 14 days: 25° C., high concentration of the active component (270 ppm); for Growth of B. fulva, 3 days / Growth of B. fulva, 5 days / Growth of B. fulva, 7 days / Growth of B. fulva, 10 days / Growth of B. fulva, 14 days: storage at 25° C.
Description: Diethyl fumarate or 2-decenoic acid was added to tomato juice (100% pure, salt-free) such that the concentration of the component was as shown in Table 1 below. […] In Table 1, those showing the growth of B. fulva are represented by “+,” and those showing no growth are represented by “−.”

[4] = system: B. fulva; assay: Growth of B. fulva in Trypticase soy broth medium stored 7 days at 25° C.; type: cell-based, Byssochlamys fulva; details: for growth inhibition effect against B. fulva: 1000 ppm; for Growth of B. fulva after lapse of 7 days under storage at 25° C.: concentration 1000 ppm
Description: as §1, §2

growth inhibition effect against N. primulina [2]: exhibit the growth inhibition effect
growth inhibition effect against B. fulva [4]: exhibit the growth inhibition effect
Compound: CCCCCCC/C=C/C(=O)O [2-Decenoic acid, (E)-dec-2-enoic acid]
growth inhibition effect against N. primulina after the lapse of 14 days ([1]; 25° C.): the effect is maintained
Growth of N. primulina, 3 days ([1]; 70 ppm): −
Growth of N. primulina, 5 days ([1]; 70 ppm): +
Growth of N. primulina, 7 days ([1]; 70 ppm): +
Growth of N. primulina, 10 days ([1]; 70 ppm, 10 days): +
Growth of N. primulina, 14 days ([1]; 70 ppm): +
Growth of N. primulina, 3 days ([1]; 270 ppm): −
Growth of N. primulina, 5 days ([1]; 270 ppm): −
Growth of N. primulina, 7 days ([1]; 270 ppm): −
Growth of N. primulina, 10 days ([1]; 270 ppm, 10 days): −
Growth of N. primulina, 14 days ([1]; 270 ppm): −
Growth of N. primulina after lapse of 7 days under storage at 25° C. [2]: −
generation of B. fulva after the lapse of 14 days [3]: no generation
Growth of B. fulva, 3 days ([3]; 70 ppm): −
Growth of B. fulva, 5 days ([3]; 70 ppm): −
Growth of B. fulva, 7 days ([3]; 70 ppm): −
Growth of B. fulva, 10 days ([3]; 70 ppm): +
Growth of B. fulva, 14 days ([3]; 70 ppm): +
Growth of B. fulva, 3 days ([3]; 270 ppm): −
Growth of B. fulva, 5 days ([3]; 270 ppm): −
Growth of B. fulva, 7 days ([3]; 270 ppm): −
Growth of B. fulva, 10 days ([3]; 270 ppm): −
Growth of B. fulva, 14 days ([3]; 270 ppm): −
Growth of B. fulva after lapse of 7 days under storage at 25° C. [4]: −

Compound: C=CCc1ccc(OC)cc1 [Estragole]
Growth of N. primulina after lapse of 7 days under storage at 25° C. [2]: +
Growth of B. fulva after lapse of 7 days under storage at 25° C. [4]: +

Compound: Sc1nc2ccccc2s1 [2-Mercapto benzothiazole]
Growth of N. primulina after lapse of 7 days under storage at 25° C. [2]: +
Growth of B. fulva after lapse of 7 days under storage at 25° C. [4]: +

Compound: CC(C)c1cccc(=O)c(O)c1 [Hinokitiol]
Growth of N. primulina after lapse of 7 days under storage at 25° C. [2]: +
Growth of B. fulva after lapse of 7 days under storage at 25° C. [4]: +

Compound: CCCCCC=O [Hexanal]
Growth of N. primulina after lapse of 7 days under storage at 25° C. [2]: +
Growth of B. fulva after lapse of 7 days under storage at 25° C. [4]: +

Compound: C/C=C/c1ccc(OC)cc1 [Trans-anethole]
Growth of N. primulina after lapse of 7 days under storage at 25° C. [2]: +
Growth of B. fulva after lapse of 7 days under storage at 25° C. [4]: +

Compound: O=C(O)c1ccccc1O [Salicylic acid]
Growth of N. primulina after lapse of 7 days under storage at 25° C. [2]: +
Growth of B. fulva after lapse of 7 days under storage at 25° C. [4]: +

Compound: OCc1ccccc1 [Benzyl alcohol]
Growth of N. primulina after lapse of 7 days under storage at 25° C. [2]: +
Growth of B. fulva after lapse of 7 days under storage at 25° C. [4]: +

Compound: Cc1ccc(C(C)C)cc1 [p-Cymene]
Growth of N. primulina after lapse of 7 days under storage at 25° C. [2]: +
Growth of B. fulva after lapse of 7 days under storage at 25° C. [4]: +

growth inhibition effect against N. primulina [2]: exhibit the growth inhibition effect
growth inhibition effect against B. fulva [4]: exhibit the growth inhibition effect
Compound: CCOC(=O)/C=C/C(=O)OCC [Diethyl fumarate, diethyl (E)-but-2-enedioate]
generation of N. primulina after the lapse of 10 days ([1]; 25° C., 10 days): no generation
growth inhibition effect against N. primulina after the lapse of 14 days ([1]; 25° C.): the effect is maintained
Growth of N. primulina, 3 days ([1]; 70 ppm): −
Growth of N. primulina, 5 days ([1]; 70 ppm): −
Growth of N. primulina, 7 days ([1]; 70 ppm): −
Growth of N. primulina, 10 days ([1]; 70 ppm, 10 days): −
Growth of N. primulina, 14 days ([1]; 70 ppm): +
Growth of N. primulina, 3 days ([1]; 270 ppm): −
Growth of N. primulina, 5 days ([1]; 270 ppm): −
Growth of N. primulina, 7 days ([1]; 270 ppm): −
Growth of N. primulina, 10 days ([1]; 270 ppm, 10 days): −
Growth of N. primulina, 14 days ([1]; 270 ppm): −
Growth of N. primulina after lapse of 7 days under storage at 25° C. [2]: −
generation of B. fulva after the lapse of 14 days [3]: no generation
Growth of B. fulva, 3 days ([3]; 70 ppm): −
Growth of B. fulva, 5 days ([3]; 70 ppm): −
Growth of B. fulva, 7 days ([3]; 70 ppm): −
Growth of B. fulva, 10 days ([3]; 70 ppm): +
Growth of B. fulva, 14 days ([3]; 70 ppm): +
Growth of B. fulva, 3 days ([3]; 270 ppm): −
Growth of B. fulva, 5 days ([3]; 270 ppm): −
Growth of B. fulva, 7 days ([3]; 270 ppm): −
Growth of B. fulva, 10 days ([3]; 270 ppm): −
Growth of B. fulva, 14 days ([3]; 270 ppm): −
Growth of B. fulva after lapse of 7 days under storage at 25° C. [4]: −

Compound: COc1cc(C(=O)O)cc(OC)c1O [4-Hydroxy-3,5-dimethoxybenzoic acid]
Growth of N. primulina after lapse of 7 days under storage at 25° C. [2]: +
Growth of B. fulva after lapse of 7 days under storage at 25° C. [4]: +

Growth of N. primulina after lapse of 7 days under storage at 25° C. [2]: +
Growth of B. fulva after lapse of 7 days under storage at 25° C. [4]: +
Compound: CC12CCC(CC1)C(C)(C)O2 [1,8-Cineole]

Compound: CCCCCCCCCCCCCCCC(=O)O [Palmitic acid]
Growth of N. primulina after lapse of 7 days under storage at 25° C. [2]: +
Growth of B. fulva after lapse of 7 days under storage at 25° C. [4]: +

Compound: C=CC(C)(CCC=C(C)C)OC(C)=O (stereo not drawn) [Linalyl acetate]
Growth of N. primulina after lapse of 7 days under storage at 25° C. [2]: +
Growth of B. fulva after lapse of 7 days under storage at 25° C. [4]: +

Compound: O=C(O)C=Cc1ccccc1 [Cinnamic acid]
Growth of N. primulina after lapse of 7 days under storage at 25° C. [2]: +
Growth of B. fulva after lapse of 7 days under storage at 25° C. [4]: +

Compound: CC1=CCC2CC1C2(C)C (stereo not drawn) [α-Pinene]
Growth of N. primulina after lapse of 7 days under storage at 25° C. [2]: +
Growth of B. fulva after lapse of 7 days under storage at 25° C. [4]: +
